Results on 10 compounds are retold here after PubChem BioAssay (NCI).

Some test systems named below: SR leukemia; OVCAR-4 ovarian; SNB-75 CNS; OVCAR-5 ovarian; CCRF-CEM leukemia; ACHN renal; HL-60(TB) leukemia; 786-0 renal; HOP-92 NSCLC; HOP-62 NSCLC.
Common to all, as to experiment: NCI-60 cell line screen, 48 h

Molecules are shown by their SMILES. “And” between values parts separate entries of the source, which are not always exact repeats. Identical values can stand only once.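 A five-concentration, 48-hour dose response in 96-well plates underlies each endpoint, interpolated linearly between surrounding concentrations. Here, GI50 denotes the concentration required for 50% inhibition of growth. Definition used: TGI = concentration required for complete inhibition of growth.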

For `CCCOC(=O)N[C@H]1CCc2c(Br)c(OC)c(OC)c(OC)c2-c2ccc(SC)c(=O)cc21`, the GI50 in the experiment with SR leukemia was below 0.01 µM; with OVCAR-4 ovarian, 0.158 µM; with SNB-75 CNS, 0.0262 µM; in the experiment on OVCAR-5 ovarian, 0.0501 µM; in the experiment with CCRF-CEM leukemia, 0.0274 µM; in the experiment with ACHN renal it was 0.0431 µM. Besides, the GI50 with HL-60(TB) leukemia is 0.0245 µM; with 786-0 renal, 0.0407 µM; with HOP-92 NSCLC, 0.0411 µM; with HOP-62 NSCLC, 0.0633 µM. The TGI in the experiment on SR leukemia was above 40.5 µM; in the experiment on OVCAR-4 ovarian, above 100 µM; in the experiment on SNB-75 CNS, 25.5 µM; with OVCAR-5 ovarian it was 34.5 µM; in the experiment on CCRF-CEM leukemia, above 51.2 µM; with ACHN renal, 30.4 µM. Moreover, the TGI is 0.0784 µM in the experiment with HL-60(TB) leukemia, 11.4 µM with 786-0 renal, 6.28 µM in the experiment with HOP-92 NSCLC and above 100 µM in the experiment with HOP-62 NSCLC.

Regarding `Cc1cc(N(CCCl)CCCl)ccc1C=Nc1cccnc1`, the GI50 is 0.695 µM in the experiment with SR leukemia; 22.4 µM in the experiment with OVCAR-4 ovarian; 11.5 µM in the experiment on SNB-75 CNS; 1.86 µM in the experiment on OVCAR-5 ovarian; 6.75 µM with CCRF-CEM leukemia; 5.38 µM in the experiment on ACHN renal. In addition, the GI50 in the experiment with HL-60(TB) leukemia was 1.58 µM; with 786-0 renal it was 6.6 µM; in the experiment on HOP-92 NSCLC it was 13.9 µM; with HOP-62 NSCLC it was 10.5 µM. The TGI with SR leukemia is above 100 µM; in the experiment on OVCAR-4 ovarian it was above 100 µM; in the experiment on SNB-75 CNS it was above 100 µM; in the experiment with OVCAR-5 ovarian it was 15.9 µM; in the experiment on CCRF-CEM leukemia it was above 100 µM; with ACHN renal, above 100 µM. In addition, the TGI with HL-60(TB) leukemia was 30 µM; in the experiment with 786-0 renal it was above 69.1 µM; in the experiment on HOP-92 NSCLC, 68.2 µM; in the experiment on HOP-62 NSCLC, above 100 µM.

Regarding `Cc1c(Cl)cccc1NC(=O)CC1Sc2ccccc2NC1=O` (stereo not given), the TGI with SR leukemia was 56.7 µM; with OVCAR-4 ovarian, 40 µM and 40.4 µM; in the experiment with SNB-75 CNS it was 19 µM and 36.5 µM; in the experiment on OVCAR-5 ovarian, above 100 µM; in the experiment with CCRF-CEM leukemia it was above 100 µM; in the experiment on ACHN renal, 63.6 µM and 69.8 µM. Moreover, the TGI in the experiment on HL-60(TB) leukemia is 54.2 µM and 49.3 µM; with 786-0 renal, 50.9 µM and 31.7 µM; in the experiment on HOP-92 NSCLC, 42.9 µM and 64 µM; in the experiment with HOP-62 NSCLC, 42.3 µM and 31.1 µM. Also, the GI50 in the experiment on SNB-75 CNS was 4.95 µM and 14.5 µM.

Take `CCc1nc2c(O)ccc(O)c2nc1C`: the TGI was above 100 µM in the experiment with SR leukemia; 17.3 µM in the experiment with OVCAR-4 ovarian; 37.6 µM in the experiment on SNB-75 CNS; 33.5 µM in the experiment with OVCAR-5 ovarian; above 22.3 µM in the experiment with CCRF-CEM leukemia; 23 µM in the experiment on ACHN renal. The TGI in the experiment with HL-60(TB) leukemia is above 21.7 µM; with 786-0 renal, 26.3 µM; in the experiment on HOP-92 NSCLC, 13.7 µM; in the experiment on HOP-62 NSCLC, 32.3 µM.

As for `COC(=O)OCC1OC(N2C(=O)NC(=O)C(I)C2N=[N+]=[N-])CC1OC(=O)OC` (stereo not given), the TGI with SR leukemia, with OVCAR-4 ovarian, in the experiment with SNB-75 CNS, in the experiment with OVCAR-5 ovarian, in the experiment on CCRF-CEM leukemia and with ACHN renal was above 100 µM throughout. Besides, the TGI with HL-60(TB) leukemia, in the experiment with 786-0 renal, in the experiment with HOP-92 NSCLC and in the experiment with HOP-62 NSCLC was above 100 µM in each case.

Consider `COc1ccccc1-c1cc2c3c(nc4ccccc42)C(=O)c2cccnc2-c3n1`, for which the GI50 was above 100 µM with SR leukemia; 13.5 µM in the experiment with OVCAR-4 ovarian; 8.89 µM in the experiment on SNB-75 CNS; 15 µM in the experiment on OVCAR-5 ovarian; 4.94 µM with CCRF-CEM leukemia; 13.7 µM in the experiment with ACHN renal. For the same compound, the GI50 in the experiment on HL-60(TB) leukemia was above 100 µM; in the experiment on 786-0 renal it was 15.5 µM; in the experiment with HOP-92 NSCLC, 19.1 µM; in the experiment on HOP-62 NSCLC it was 14.4 µM. In addition, the TGI with SR leukemia is above 100 µM; with OVCAR-4 ovarian it was 38.7 µM; in the experiment on SNB-75 CNS it was 22.6 µM; with OVCAR-5 ovarian it was 34 µM; with CCRF-CEM leukemia it was above 100 µM; with ACHN renal, 30.1 µM. Also, the TGI with HL-60(TB) leukemia is above 100 µM; in the experiment on 786-0 renal it was 29.7 µM; in the experiment on HOP-92 NSCLC, above 100 µM; with HOP-62 NSCLC, 48.2 µM.

Turning to `CN(C)CCNC(=O)c1ccc2ccc3cccnc3c2n1`, the TGI was 30.7 µM in the experiment on SR leukemia; above 69.2 µM in the experiment with OVCAR-4 ovarian; 34.4 µM in the experiment on SNB-75 CNS; 47.8 µM in the experiment with OVCAR-5 ovarian; above 100 µM in the experiment with CCRF-CEM leukemia; 97.3 µM in the experiment with ACHN renal. Also, the TGI in the experiment on HL-60(TB) leukemia is above 84 µM; with 786-0 renal it was above 100 µM; in the experiment with HOP-92 NSCLC, 65.2 µM; with HOP-62 NSCLC, 63.1 µM.

Take `O=C1C(=O)c2ccc(Br)cc2-c2cc(Br)ccc21`: the GI50 with SR leukemia was 0.998 µM; with OVCAR-4 ovarian it was 0.274 µM; in the experiment on SNB-75 CNS, above 54.6 µM; in the experiment on OVCAR-5 ovarian it was above 41.6 µM; in the experiment with CCRF-CEM leukemia it was 0.553 µM; in the experiment on ACHN renal it was 1.52 µM. The GI50 was 0.607 µM in the experiment with HL-60(TB) leukemia, 10.4 µM in the experiment on 786-0 renal, 1.36 µM in the experiment on HOP-92 NSCLC and 8.44 µM with HOP-62 NSCLC. Besides, the TGI in the experiment with SR leukemia is 2.92 µM; in the experiment with OVCAR-4 ovarian, 0.696 µM; in the experiment with SNB-75 CNS, above 100 µM; in the experiment on OVCAR-5 ovarian, above 62.2 µM; with CCRF-CEM leukemia, 1.83 µM; with HL-60(TB) leukemia, 1.71 µM. For the same compound, the TGI with 786-0 renal was above 56.3 µM; with HOP-92 NSCLC it was 9.5 µM; in the experiment with HOP-62 NSCLC, above 45.6 µM.

For the compound `OCCN1CCN(CCCN2c3ccccc3Sc3ccc(C(F)(F)F)cc32)CC1`, the GI50 in the experiment with SR leukemia is 2.05 µM and 3.56 µM and 1.9 µM; in the experiment with OVCAR-4 ovarian, 5.29 µM and 10.8 µM and 8.5 µM; in the experiment on SNB-75 CNS, 2.04 µM and 10 µM and 6.62 µM; with OVCAR-5 ovarian, 5.68 µM and 11.2 µM and 11.5 µM; with CCRF-CEM leukemia it was 2.59 µM; with ACHN renal, 3.61 µM and 11.7 µM and 10.2 µM. For the same compound, the GI50 in the experiment with HL-60(TB) leukemia was 2.52 µM and 11.5 µM and 2.06 µM; in the experiment on 786-0 renal, 3.01 µM and 9.35 µM and 3.81 µM; with HOP-92 NSCLC it was 0.708 µM; in the experiment with HOP-62 NSCLC, 3.11 µM and 13.1 µM and 11.6 µM. Also, the TGI with SR leukemia was 6.46 µM and 13.2 µM and 5.51 µM; with OVCAR-4 ovarian it was 11.2 µM and 23.1 µM and 20.9 µM; with SNB-75 CNS, 9.16 µM and 22.4 µM and 21.8 µM; in the experiment with OVCAR-5 ovarian it was 12.2 µM and 25.3 µM and 25.1 µM; with CCRF-CEM leukemia it was 9.67 µM; in the experiment on ACHN renal it was 10.2 µM and 25.6 µM and 22.6 µM. The TGI was 9.06 µM and 29.3 µM and 5.56 µM in the experiment with HL-60(TB) leukemia; 9.95 µM and 25.9 µM and 20.4 µM in the experiment with 786-0 renal; 3.81 µM with HOP-92 NSCLC; 9.82 µM and 27.4 µM and 24.7 µM with HOP-62 NSCLC.

With `O=C(Cc1ccccc1)Oc1ccc2c(-c3ccccc3)c(C(=O)Nc3ccc(Cl)cc3)c(=O)oc2c1`, the TGI in the experiment on SR leukemia, in the experiment on OVCAR-4 ovarian, with SNB-75 CNS, with OVCAR-5 ovarian, in the experiment with CCRF-CEM leukemia and in the experiment with ACHN renal was above 100 µM in each case. In addition, the TGI with HL-60(TB) leukemia, in the experiment on 786-0 renal, in the experiment with HOP-92 NSCLC and in the experiment on HOP-62 NSCLC was above 100 µM each time.
